The source of these data is patent US20140206624A1, “TREATMENT OF LEUKEMIA” (THE BRIGHAM AND WOMEN'S HOSPITAL, INC., priority 2011, published 2014).

Assay [1] relates to MLL-AF9 induced AML. In words: MLL-AF9 BMT assay, leukemic burden (spleen weight, WBC). Format: in vivo, mouse. To be noted: FoxO1/3/4 floxed. The protocol:
MLL-AF9-positive FoxO1/3/4^floxed murine bone marrow (BM) cell recovered from a leukemic primary recipient mousecarrying the Mx1-Cre transgene (Mx1-Cre+) or not (Mx1-Cre−) were transplanted into sub-lethally irradiated secondary recipient mice. Fourteen days following transplant 50% of both Mx1-Cre+ and Mx1-Cre− mice were administered pI-pC and the remaining 50% of mice from each condition were given saline. At the first sign of leukemia all mice from each Mx1-Cre condition status were euthanized (Day 29 for Mx1-Cre−(saline and pI-pC treated) and Day 39 for Mx1-Cre+ (saline & pI-pC-treated)).
(§1) After transduction, infected cells were transplanted into lethally irradiated (2 doses of 450rad gIR separated by 12 hours) F1 FVB/C57/Bl6 mice. Recipient mice developed leukemia within 70-80 days with a median survival of 77 days. Mononuclear BM cells recovered from leukemic mice were then transplanted into secondary sub-lethally irradiated recipients. Fourteen days following transplant, secondary recipients were administered intra-peritoneally three doses of saline or 12.5 mg/kg pI-pC (GE Healthcare Life Sciences) every 2 days. Mice were then monitored for external (i.e. moribund) and internal (white blood cell counts) signs of leukemia.
To address whether FoxO1/3/4 are essential to maintain MLL-AF9 induced AML in vivo, a MLL-AF9 bone marrow transplant (BMT) assay was used in a mouse bearing homozygous Lox-P flanked (floxed) alleles of FoxO1/3/4 and the interferon-inducible Mx1-Cre transgene (FoxO1/3/4^floxed; Mx1-Cre+; MLL-AF9). MLL-AF9 transformed FoxO1/3/4^floxed BM cells without the Mx1-Cre transgene (FoxO1/3/4^floxed; Mx1-Cre−; MLL-AF9) were used as controls. Leukemia cells from each context (recovered from primary recipients displaying frank leukemia) were harvested and transplanted into sub-lethally irradiated recipients. Fourteen days post-transplant, secondary recipients receiving FoxO1/3/4^floxed; Mx1-Cre+; MLL-AF9 cells or FoxO1/3/4^floxed; Mx1-Cre−; MLL-AF9 controls were either administered polyinosine-polycytidyline (pI-pC) to induce excision of FoxO1/3/4 floxed alleles or saline control (FIG. 9A). At the first presentation of AML, all mice from each group (Mx1-Cre− versus Mx1-Cre+) were euthanized and assessed for leukemic burden as defined by spleen weight and peripheral white blood cell (WBC) counts. […] In contrast, pI-pC-treated FoxO1/3/4^floxed; Mx1-Cre+; MLL-AF9 transplant mice retained normal spleen weights and WBC counts (FIGS. 9B-D and 10A).

In assay [2] the test system is MLL-AF9 induced AML. In words: MLL-AF9 BMT assay, WBC monitoring and survival/latency. Format: in vivo, mouse.
From the text: WBC analysis of peripheral blood collected every 4-14 days post-transplant from Mx1-Cre+ saline and pI-pC-treated mice. Data is independent from Panel C (n=4).
Kaplan-Meier survival curve analysis of recipient mice Mx1-Cre− transplanted and treated as described above; n=6, p=0.6899.
Kaplan-Meier survival curve analysis of recipient mice Mx1-Cre+ transplanted and treated as described above. (p=0.0009; n=10).
as §1
To distinguish whether disrupting FoxO1/3/4 expression eliminated MLL-AF9 leukemia or merely delayed the onset, FoxO1/3/4^floxed; Mx1-Cre−; MLL-AF9 and FoxO1/3/4^floxed; Mx1-Cre+; MLL-AF9 leukemic cells were separately transplanted into sub-lethally irradiated recipients. Fourteen days post-transplant, mice were administered either pI-pC or saline and subsequently monitored daily for clinical signs of leukemia. Peripheral blood from recipient mice was collected and analyzed for WBC counts every 4-14 days. Mice were euthanized upon displaying external morbidity and/or elevated WBC counts. […] However, despite efficient excision of FoxO1/3/4 (FIGS. 10C-10F) the majority of mice eventually succumbed to leukemia (FIG. 9F).

Setting [3] is: Mx1-Cre+, MLL-AF9 mice, pI-pC induces excision of FoxO1/3/4.

On to polyinosine-polycytidyline [pI-pC], for which, in the assay on MLL-AF9 induced AML [1] (setting [3]), the WBC counts result is reported as “normal” and the spleen weights entry is listed as “normal”. Also, the “lymphoid-myeloid ratio in peripheral blood” value with MLL-AF9 induced AML [1] (Mx1-Cre+, MLL-AF9 mice, data not shown) is reported as “normal lymphoid-myeloid ratio”. Further, the splenomegaly and leukocytosis result in the assay on MLL-AF9 induced AML [1] (Mx1-Cre−, MLL-AF9 recipients (no excision)) was “developed splenomegaly and leukocytosis”. Further, the “latency for the onset of AML” value in the assay with MLL-AF9 induced AML [2] (Mx1-Cre+ leukemic cells, excision of FoxO1/3/4) is recorded as “significantly longer latency”. The WBC counts result in the assay on MLL-AF9 induced AML [2] (Mx1-Cre+ mice, blood every 4-14 days) is “lower WBC counts than saline-treated controls”. Besides, in the assay on MLL-AF9 induced AML [2] (Mx1-Cre+, n=10), the “mice disease-free up to 5 months post-excision” value is reported as 20%.
